Assay type in all cases: cell-based, human
Data set [1] concerns HCC827-luc cells. The data set can be described thus: Alamar Blue proliferation assay, HCC827-luc. An excerpt:
(§1) The inventors assessed the therapeutic effect of hsa-miR-147 for lung cancer by using 12 individual lung cancer cell lines. To measure cellular proliferation of lung cancer cells, the following parental non-small cell lung cancer (NSCLC) cells were used: cells derived from lung adenocarcinoma (A549, H1299, H522, H838, Calu-3, HCC827, HCC2935), cells derived from lung squamous cell carcinoma (H520, H226), cells derived from lung adenosquamous cell carcinoma (H596), cells derived from lung bronchioalveolar carcinoma (H1650), and cells derived from lung large cell carcinoma (H460). In addition to these parental cell lines, highly metastatic NSCLC cells were used that stably express the firefly luciferase gene: A549-luc, H460-luc, HCC827-luc, H1650-luc, H441-luc. Unlike the parental cell lines, these metastatic cells readily migrate to distant sites of the test animal and form metastases upon subcutaneous, orthotopic, or intravenous injection. Synthetic hsa-miR-147 or negative control miRNA was delivered via lipid-based transfection into A549, H1299, H522, H838, Calu-3, HCC827, HCC2935, H520, H596, H1650, H460, A549-luc, H460-luc, HCC827-luc, H1650-luc, H441-luc cells and via electroporation into H226 cells. Lipid-based reverse transfection was carried out in triplicates according to a published protocol and the following parameters: 5000-12000 cells per 96 well, 0.1-0.2 μl lipofectamine-2000 (Invitrogen, Carlsbad, Calif.) in 20 μl OptiMEM (Invitrogen), […] final concentration of miRNA in 100 μl (Ovcharenko et al., 2005). Electroporation of H226 cells was carried out using the BioRad GenePulserXcell™ instrument with the following settings: 5×10^6 cells with 5 μg miRNA in 200 μl OptiMEM, square wave pulse at 250 V for 5 ms. Electroporated H226 cells were seeded at 7000 cells per 96-well in a total volume of 100 μl. All cells except for Calu-3 cells were harvested 72 hours post transfection or electroporation for assessment of cellular proliferation. Calu-3 cells were harvested 10 days post transfection. […]

The subject of data set [2] is H1650-luc cells. The data set is described as follows: Alamar Blue proliferation assay, H1650-luc.
Description: as §1
(In general: The colour change of resazurin is a common sign of viable cells or microbes.)

Data set [3] relates to H460 lung cancer cells. The data set is described as follows: Alamar Blue proliferation assay of pair-wise miRNA combinations. Conditions: for % proliferation: H460 cells, normalized to 600 pM negative control (NC) miRNA. An excerpt: miRNAs function in multiple pathways controlling multiple cellular processes. Cancer cells frequently show aberrations in several different pathways which determine their oncogenic properties. Therefore, combinations of multiple miRNAs may provide a better therapeutic benefit rather than a single miRNA. The inventors assessed the efficacy of pair-wise miRNA combinations, administering hsa-miR-147 concurrently with hsa-miR-124a, hsa-miR-126, hsa-let7b, hsa-let-7c or hsa-let7g. H460 lung cancer cells were transiently reverse transfected in triplicates with each miRNA at a final concentration of 300 pM, totaling in 600 pM of oligonucleotide. As a negative control, 600 pM of negative control miRNA (pre-miR NC#2, Ambion) was used. To correlate the effect of various combinations with the effect of the sole miRNA, each miRNA at 300 pM was also combined with 300 pM negative control miRNA. Reverse transfection was carried using the following parameters: 7000 cells per 96 well, 0.15 μl lipofectamine2000 (Invitrogen) in 20 μl OptiMEM (Invitrogen), 100 μl total transfection volume. […] Cells were harvested 72 hours after transfection and subjected to Alamar Blue assays (Invitrogen). Alamar Blue values were normalized to the ones obtained from cells treated with 600 pM negative control miRNA. Data are expressed as % proliferation relative to negative control miRNA-treated cells.
As shown in FIG. 4 and Table 9, transfection of 300 pM hsa-miR-147 reduces proliferation of H460 cells by 23%. […] Additive activity of pair-wise combinations (e.g., hsa-miR-147 plus hsa-miR-124a) is defined as an activity that is greater than the sole activity of each miRNA (e.g., activity of hsa-miR-147 plus hsa-miR-124a>hsa-miR-147 plus NC AND activity of hsa-miR-147 plus hsa-miR-124a>hsa-miR-124a plus NC). Synergistic activity of pair-wise combinations is defined as an activity that is greater than the sum of the sole activity of each miRNA (e.g., activity of hsa-miR-147 plus hsa-miR-124a>SUM [activity of hsa-miR-147 plus NC AND activity of hsa-miR-124a plus NC]). […]

Where [4] appears, read: etoposide 10 μM, normalized to negative control miRNA (100%).
[5] abbreviates: etoposide 50 μM, normalized to negative control miRNA (100%).
[6] abbreviates: 30 nM, normalized to negative control miRNA (100% proliferation).

Take `COc1cc([C@@H]2c3cc4c(cc3[C@@H](O[C@@H]3O[C@@H]5CO[C@@H](C)O[C@H]5[C@H](O)[C@H]3O)[C@H]3COC(=O)[C@H]23)OCO4)cc(OC)c1O` [Etoposide, etoposide]: the “% proliferation” value is given as 21.92% in data set [1] (setting [4]); 0.75% in data set [1] (setting [5]); 33.78% in data set [2] (setting [4]); 5.59% in data set [2] (setting [5]); 20.19% in data set [3] (etoposide 10 μM); 14.94% in data set [3] (etoposide 50 μM).
As for “hsa-miR-147: Synthetic pre-miR-147 (Ambion AM17100; Dharmacon in vivo); mature sequence GUGUGUGGAAAUGCUUCUGC, MIMAT0000251, SEQ ID NO:114 (synthetic pre-miR (Ambion/Dharmacon), chemistry not given here; listed as Homo sapiens)”, the “% proliferation” value is 61.15% in data set [1] (setting [6]) and 59.27% in data set [2] (setting [6]). Also, the “reduction of proliferation of H460 cells” value in data set [3] (300 pM single miRNA plus 300 pM negative control miRNA, 72 hours, vs 600 pM negative control miRNA) was determined as 23%.

The record behind these values is US20090131356A1, “miR-15, miR-26, miR-31, miR-145, miR-147, miR-188, miR-215, miR-216, miR-331, mmu-miR-292-3P REGULATED GENES AND PATHWAYS AS TARGETS FOR THERAPEUTIC INTERVENTION” (ASURAGEN, INC., priority 2006, published 2009).
